Laboratory results from patent US9994546B2, “Cyclopropylamines as LSD1 inhibitors” (Incyte Corporation, priority 2014, dated 2018).

What follows are compounds tested against LSD-1 enzyme (Homo sapiens (Human), UniProt O60341) (assay: LANCE LSD1/KDM1A demethylase assay (LSD1 histone demethylase biochemical assay)). Conditions: 1 nM LSD-1 enzyme, 1 hour preincubation at 25° C., 0.4 μM biotin-labeled Histone H3 peptide substrate.
Description: LANCE LSD1/KDM1A demethylase assay—10 μL of 1 nM LSD-1 enzyme (ENZO BML-SE544-0050) in the assay buffer (50 mM Tris, pH 7.5, 0.01% Tween-20, 25 mM NaCl, 5 mM DTT) were preincubated for 1 hour at 25° C. with 0.8 μL compound/DMSO dotted in black 384 well polystyrene plates. […] After stopping the reactions plates were incubated for 30 minutes and read on a PHERAstar FS plate reader (BMG Labtech).
`N#CCC1(N2CCC(CN[C@@H]3C[C@H]3c3ccccc3)CC2)CN(C(=O)c2ccccc2)C1` (relative stereo) [Example 45, [1-Benzoyl-3-(4-{[(trans-2-phenylcyclopropyl)amino]methyl}piperidin-1-yl)azetidin-3-yl]acetonitrile] gave an IC50 of at most 100 nM. `N#CCC1(N2CCC(CN[C@@H]3C[C@H]3c3ccccc3)CC2)CN(c2cccc(Cl)c2C#N)C1` (relative stereo) [Example 38, 2-Chloro-6-[3-(cyanomethyl)-3-(4-{[(trans-2-phenylcyclopropyl)amino]methyl}piperidin-1-yl)azetidin-1-yl]benzonitrile] was tested, and the IC50 was at most 100 nM. `N#CCC1(N2CCC(N[C@@H]3C[C@H]3c3ccccc3)CC2)CN(Cc2ccccc2)C1` (relative stereo) [Example 4, (1-Benzyl-3-{4-[(trans-2-phenylcyclopropyl)amino]piperidin-1-yl}azetidin-3-yl)acetonitrile] showed an IC50 of at most 100 nM. `CN(C)C(=O)N1CCC(CC#N)(N2CC(CN[C@@H]3C[C@H]3c3ccccc3)C2)CC1` (relative stereo) [Example 23, 4-(Cyanomethyl)-N,N-dimethyl-4-(3-{[(trans-2-phenylcyclopropyl)amino]methyl}azetidin-1-yl)piperidine-1-carboxamide] gave an IC50 of at most 100 nM. `COC1CCN(C(=O)N2CC(CC#N)(N3CCC(N[C@@H]4C[C@H]4c4ccccc4)CC3)C2)CC1` [Example 88, [1-[(4-methoxypiperidin-1-yl)carbonyl]-3-(4-{[(1R,2S)-2-phenylcyclopropyl]amino}piperidin-1-yl)azetidin-3-yl]acetonitrile] was tested, and the IC50 was at most 100 nM. Compound `CNC(=O)CC1(N2CCC(N[C@@H]3C[C@H]3c3ccccc3)CC2)CN(S(C)(=O)=O)C1` [Example 91, N-methyl-2-[1-(methylsulfonyl)-3-(4-{[(1R,2S)-2-phenylcyclopropyl]amino}piperidin-1-yl)azetidin-3-yl]acetamide] has an IC50 of at most 100 nM. For `CN1CCC(N2CC(CN[C@@H]3C[C@H]3c3ccccc3)C2)CC1` (relative stereo) [Example 28, N-{[1-(1-Methylpiperidin-4-yl)azetidin-3-yl]methyl}-trans-2-phenylcyclopropanamine], the IC50 was at most 100 nM. `Cn1cc(S(=O)(=O)N2CC(CC#N)(N3CCC(N[C@@H]4C[C@H]4c4ccccc4)CC3)C2)cn1` [Example 100, [1-[(1-methyl-1H-pyrazol-4-yl)sulfonyl]-3-(4-{[(1R,2S)-2-phenylcyclopropyl]amino}piperidin-1-yl)azetidin-3-yl]acetonitrile] was tested, and the IC50 was at most 100 nM. `CC1(CN[C@@H]2C[C@H]2c2ccccc2)CCN(C2(CC(=O)O)CCC2)CC1` [Example 55, {1-[4-methyl-4-({[(1R,2S)-2-phenylcyclopropyl]amino}methyl)piperidin-1-yl]cyclobutyl}acetic acid] gave an IC50 of at most 100 nM. `N#CCC1(N2CCC(N[C@@H]3C[C@H]3c3ccccc3)CC2)CN(C(=O)N2CC(O)C2)C1` [Example 89, [1-[(3-hydroxyazetidin-1-yl)carbonyl]-3-(4-{[(1R,2S)-2-phenylcyclopropyl]amino}piperidin-1-yl)azetidin-3-yl]acetonitrile] was tested, and the IC50 was at most 100 nM. `CC(=O)N1CC(CC#N)(N2CCC(N[C@@H]3C[C@H]3c3ccccc3)CC2)C1` (relative stereo) [Example 6, (1-Acetyl-3-{4-[(trans-2-phenylcyclopropyl)amino]piperidin-1-yl}azetidin-3-yl)acetonitrile] showed an IC50 of at most 100 nM. `O=C(O)CC1(N2CCC(N[C@@H]3C[C@H]3c3ccccc3)CC2)CN(Cc2nccs2)C1` [Example 129, [3-(4-{[(1R,2S)-2-phenylcyclopropyl]amino}piperidin-1-yl)-1-(1,3-thiazol-2-ylmethyl)azetidin-3-yl]acetic acid] showed an IC50 of at most 100 nM. Compound `N#CCC1(N2CCC(N[C@@H]3C[C@H]3c3ccccc3)CC2)CN(CCO)C1` [Example 74, [1-(2-hydroxyethyl)-3-(4-{[(1R,2S)-2-phenylcyclopropyl]amino}piperidin-1-yl)azetidin-3-yl]acetonitrile] has an IC50 of at most 100 nM.
